In one assay the test system is Trichophyton rubrum. As to the kind of experiment: Antifungal activity against Trichophyton rubrum IFO 9185 measured after 48 to 72 hrs. It is filed as functional.
The subject of another assay is Staphylococcus aureus. As to the kind of experiment: Antibacterial activity against Staphylococcus aureus ATCC 6538P measured after 24 hrs. It is filed as functional.
Another assay has as its system SNU-638. Put plainly: Cytotoxicity against human SNU638 cells after 72 hrs by sulforhodamine B assay. Format: functional, cell-based. The following applies: Homo sapiens, SNU-638, 72 h.
In a further assay the test system is SK-HEP1. Put plainly: Cytotoxicity against human SKHEP1 cells after 72 hrs by sulforhodamine B assay. It is filed as functional, cell-based. The following applies: Homo sapiens, SK-HEP1, 72 h.
Assay [1] concerns the target Sodium/potassium-transporting ATPase. Put plainly: Inhibition of potassium-activated sodium/potassium ATPase in human placenta using 3-O-methylfluorescein phosphate as substrate measured for 90 secs by fluorescence assay.
In a further assay the test system is MDA-MB-231. As to the kind of experiment: Cytotoxicity against human MDA-MB-231 cells after 72 hrs by sulforhodamine B assay. It is filed as functional, cell-based. The following applies: Homo sapiens, MDA-MB-231, 72 h.
Another assay concerns A549. Put plainly: cells. The following applies: Homo sapiens, A549, 72 h.
For the next assay, the system named is K562. Put plainly: Cytotoxicity against human K562 cells after 72 hrs by sulforhodamine B assay. The following applies: Homo sapiens, K562, 72 h. It is filed as functional, cell-based.
Assay [2] can be described thus: Inhibition of recombinant bacterial sortase A using Dabcyl-QALPETGEE-Edans as substrate measured after 1 hr by fluorescence assay. Also on record: species or system Bacteria.
For the next assay, the system named is Escherichia coli. Put plainly: Antibacterial activity against Escherichia coli ATCC 25922 measured after 24 hrs. Particulars: ATCC 25922, 24 h. It is filed as functional.
Another assay relates to Bacillus spizizenii. As to the kind of experiment: Antibacterial activity against Bacillus subtilis ATCC 6633 measured after 24 hrs. The following applies: ATCC 6633, 24 h. It is filed as functional.
For a further assay, the system named is Salmonella typhimurium. As to the kind of experiment: Antibacterial activity against Salmonella typhimurium ATCC 14028 measured after 24 hrs. It is filed as functional, Salmonella enterica subsp. enterica serovar Typhimurium. Particulars: Salmonella enterica, ATCC 14028, 24 h.
For a further assay, the system named is Micrococcus luteus. As to the kind of experiment: Antibacterial activity against Micrococcus luteus IFC 12708 measured after 24 hrs. The following applies: IFC 12708, 24 h. Format: functional.
The test system of a further assay is HCT-116. Put plainly: Cytotoxicity against human HCT116 cells after 72 hrs by sulforhodamine B assay. Format: functional, cell-based. Particulars: Homo sapiens, HCT-116, 72 h.
Another assay deals with Candida albicans. As to the kind of experiment: Antifungal activity against Candida albicans ATCC 10231 measured after 48 to 72 hrs. Format: functional.
The subject of a further assay is Proteus vulgaris. Put plainly: Antibacterial activity against Proteus vulgaris ATCC 3851 measured after 24 hrs. It is filed as functional. Particulars: ATCC 3851, 24 h.
The next assay relates to Aspergillus fumigatus. As to the kind of experiment: Antifungal activity against Aspergillus fumigatus HIC 6094 measured after 48 to 72 hrs. Format: functional.
Assay [3] has as its system Trichophyton mentagrophytes. Put plainly: Antifungal activity against Trichophyton mentagrophytes IFO 40996 measured after 48 to 72 hrs. It is filed as functional.

In ChEMBL document CHEMBL4145614, “Cyclopeptides from the Sponge Stylissa flabelliformis” (J Nat Prod, 2018) one finds MIC and IC50 data, which are given here for seven compounds.

Where a SMILES comes first, the peptide text is derived from it. Where only a bound is given, the exact number is not on record here.

Description for A549: Cytotoxicity against human A549 cells after 72 hrs by sulforhodamine B assay

For `CC[C@H](C)[C@@H]1NC(=O)[C@H](Cc2ccccc2)NC(=O)[C@@H]2CCCN2C(=O)[C@@H]([C@H](C)O)NC(=O)[C@@H]2CCCN2C(=O)[C@H](CO)NC(=O)[C@H](C)NC1=O`, the MIC against Trichophyton rubrum, against Staphylococcus aureus, against Escherichia coli, against Bacillus spizizenii, against Salmonella typhimurium and against Micrococcus luteus was greater than 128 µM throughout. Further, the MIC (against Candida albicans; with Proteus vulgaris; in the assay with Aspergillus fumigatus; in assay [3]) was greater than 128 µM in each case. The half-maximal inhibitory concentration (IC50) in the assay with SNU-638 is 24 µM; in the assay on SK-HEP1, 7.2 µM; in [1], greater than 100 µM; in the assay on MDA-MB-231, 10 µM; in the assay on A549, 7.4 µM; in the assay on K562, 30 µM. The IC50 in [2] was greater than 100 µM; in the assay with HCT-116, 4.5 µM.

As to `CC[C@H](C)[C@@H]1NC(=O)[C@H](C)NC(=O)[C@H](CC[S+](C)[O-])NC(=O)[C@H](C)NC(=O)[C@H](CC(N)=O)NC(=O)[C@H](Cc2ccccc2)NC(=O)[C@@H]2CCCN2C1=O` (some centres undefined) (HELM PEPTIDE1{A.I.P.F.N.A.[CS(=O)CC[C@H](N[*:1])C(=O)[*:2]]}$PEPTIDE1,PEPTIDE1,1:R1-7:R2$$$V2.0), the MIC in the assay with Trichophyton rubrum, with Staphylococcus aureus, against Escherichia coli, in the assay with Bacillus spizizenii, against Salmonella typhimurium and against Micrococcus luteus was greater than 128 µM throughout. The MIC (against Candida albicans; against Proteus vulgaris; in the assay on Aspergillus fumigatus; in assay [3]) was greater than 128 µM in each case. The IC50 in the assay on SNU-638 is 12 µM; in the assay on SK-HEP1, 13 µM; in [1], greater than 100 µM; with MDA-MB-231, 12 µM; in the assay on A549, 15 µM; in the assay with K562, 11 µM. In addition, the 50% inhibitory concentration (IC50) is greater than 100 µM in assay [2] and 12 µM in the assay with HCT-116.

For the compound `CC[C@H](C)[C@@H]1NC(=O)[C@H](C)NC(=O)[C@H](CC(C)C)NC(=O)[C@@H]2CCCN2C(=O)[C@H](CC(=O)O)NC(=O)[C@H](Cc2ccc(O)cc2)NC(=O)[C@@H]2CCCN2C1=O` (HELM PEPTIDE1{A.I.P.Y.D.P.L}$PEPTIDE1,PEPTIDE1,1:R1-7:R2$$$V2.0), the minimum inhibitory concentration (MIC) with Trichophyton rubrum, in the assay with Staphylococcus aureus, against Escherichia coli, against Bacillus spizizenii, in the assay on Salmonella typhimurium and against Micrococcus luteus was greater than 128 µM each time. Further, the minimum inhibitory concentration (MIC) (against Candida albicans; in the assay on Proteus vulgaris; in the assay on Aspergillus fumigatus; in assay [3]) was greater than 128 µM in each case. In addition, the IC50 in the assay with SNU-638 is greater than 50 µM; in the assay with SK-HEP1, greater than 50 µM; in assay [1], greater than 100 µM; with MDA-MB-231, greater than 50 µM; in the assay on A549, greater than 50 µM; with K562 it was greater than 50 µM. Moreover, the 50% inhibitory concentration (IC50) was greater than 100 µM in [2] and greater than 50 µM in the assay on HCT-116.

As for `CC[C@H](C)[C@@H]1NC(=O)[C@H](Cc2ccccc2)NC(=O)[C@@H]2CCCN2C(=O)[C@H](Cc2ccc(O)cc2)NC(=O)[C@H](CCC(=O)O)NC(=O)[C@@H]2CCCN2C(=O)[C@@H]2CCCN2C1=O` (HELM PEPTIDE1{E.Y.P.F.I.P.P}$PEPTIDE1,PEPTIDE1,1:R1-7:R2$$$V2.0), the minimal inhibitory concentration (MIC) in the assay on Trichophyton rubrum, in the assay with Staphylococcus aureus, in the assay with Escherichia coli, in the assay on Bacillus spizizenii, in the assay on Salmonella typhimurium and against Micrococcus luteus was greater than 128 µM each time. The minimum inhibitory concentration (MIC) (in the assay on Candida albicans; in the assay with Proteus vulgaris; with Aspergillus fumigatus; in assay [3]) was greater than 128 µM throughout. The IC50 with SNU-638 was 11 µM; in the assay on SK-HEP1, 11 µM; in assay [1] it was greater than 100 µM; in the assay on MDA-MB-231 it was 17 µM; with A549 it was 19 µM; in the assay with K562, 3.9 µM. In addition, the values for the IC50 (in [2]; in the assay on HCT-116) were greater than 100 µM and 6.2 µM, respectively.

In the case of `CC[C@H](C)[C@@H]1NC(=O)[C@@H]2CCCN2C(=O)[C@H](Cc2ccc(O)cc2)NC(=O)[C@@H]2CCCN2C(=O)[C@H]([C@@H](C)CC)NC(=O)[C@@H]2CCCN2C(=O)[C@H](Cc2ccccc2)NC1=O` (HELM PEPTIDE1{F.P.I.P.Y.P.I}$PEPTIDE1,PEPTIDE1,1:R1-7:R2$$$V2.0), the minimal inhibitory concentration (MIC) against Trichophyton rubrum, in the assay on Staphylococcus aureus, in the assay with Escherichia coli, in the assay on Bacillus spizizenii, in the assay on Salmonella typhimurium and against Micrococcus luteus was greater than 128 µM throughout. In addition, the MIC (in the assay on Candida albicans; in the assay on Proteus vulgaris; in the assay with Aspergillus fumigatus; in assay [3]) was greater than 128 µM each time. Further, the half-maximal inhibitory concentration (IC50) is 37 µM with SNU-638; 7.7 µM in the assay with SK-HEP1; greater than 100 µM in assay [1]; 9.1 µM in the assay on MDA-MB-231; 6.7 µM in the assay on A549; 33 µM in the assay on K562. For the same compound, the figures for the IC50 (in assay [2]; with HCT-116) were greater than 100 µM and 3.9 µM, respectively.

As to `CC[C@H](C)[C@@H]1NC(=O)[C@@H]2CCCN2C(=O)[C@@H]2CCCN2C(=O)[C@H]([C@@H](C)CC)NC(=O)[C@H](Cc2ccc(O)cc2)NC(=O)[C@@H]2CCCN2C(=O)[C@@H]2CCCN2C(=O)[C@H](CC(C)C)NC(=O)[C@H](C(C)C)NC(=O)[C@H](Cc2ccccc2)NC1=O` (HELM PEPTIDE1{F.V.L.P.P.Y.I.P.P.I}$PEPTIDE1,PEPTIDE1,1:R1-10:R2$$$V2.0), the MIC against Trichophyton rubrum, against Staphylococcus aureus, against Escherichia coli, in the assay with Bacillus spizizenii, in the assay with Salmonella typhimurium and against Micrococcus luteus was greater than 128 µM in each case. Also, the MIC (against Candida albicans; with Proteus vulgaris; against Aspergillus fumigatus; in assay [3]) was greater than 128 µM throughout. For the same compound, the IC50 with SNU-638 was 1.7 µM; in the assay on SK-HEP1, 2.3 µM; in assay [1], greater than 100 µM; in the assay on MDA-MB-231, 2.5 µM; in the assay on A549 it was 0.54 µM; with K562, 0.29 µM. Further, the IC50 in assay [2] was greater than 100 µM; in the assay on HCT-116, 0.1 µM.

As for `COc1cc([C@@H]2c3cc4c(cc3[C@@H](O[C@@H]3O[C@@H]5CO[C@@H](C)O[C@H]5[C@H](O)[C@H]3O)[C@H]3COC(=O)[C@H]23)OCO4)cc(OC)c1O` [ETOPOSIDE], the IC50 in the assay on SNU-638 worked out at 0.43 µM; in the assay with SK-HEP1, 0.93 µM; with MDA-MB-231, 4.4 µM; in the assay on A549 it was 0.72 µM; in the assay on K562 it was 1.3 µM; with HCT-116 it was 0.68 µM.
